Tests used:
wild type CK1δ = wild type CK1δ (Homo sapiens, UniProt P48730); assay: CK1δ kinase assay (Kinase-Glo); assay type: biochemical; settings: 10 μM ATP, 2 nM wild type CK1δ, 85 min at 25° C.; read-out: CK1δ inhibition (IC50)
Method: The CK1δ kinase assay was performed with a buffer (40 μL, pH 7.5) containing 50 mM Tris, 10 mM MgCl2, 1 mM dithiothreitol, 100 μg/mL BSA with 10 μM ATP, 2 nM wild type CK1δ, and 42 μM peptide substrate PLSRTLpSVASLPGL (Flotow et al., 1990) in the presence of 1 μL of a CK1δ inhibitor (e.g., a compound of the present application) or 4% DMSO (e.g., as control). The reaction mixture was incubated for 85 min at 25° C.; detection was carried out as described for the Kinase-Glo Assay (Promega). Luminescent output was measured on the Perkin Elmer Envision plate reader (PerkinElmer, Waltham, Mass.).

MDA-MB-231 cells = assay: Cell proliferation assay (crystal violet); assay type: cell-based; settings: various concentrations, 72 hours
Method: MDA-MB-231 cells treated with a compound of the present application (e.g., compound 1-1, 2-5, 1-14 and 3-8, respectively) were seeded at a density of 5×10^4cells/well in 12-well plate and incubated at 37° C. with 5% CO2. After 72 hours of culturing, the cells were washed with PBS, fixed in 4% formaldehyde for 15 minutes and stained with 0.1% crystal violet for 20 minutes. Cells were washed with water and the staining was extracted with 10% acetic acid for 20 minutes and absorbance was measured at 590 nm. The experiments were performed in triplicates.

[1] = system: MDA-MB-231 cells (breast cancer cells); assay: Transwell cell migration assay; assay type: cell-based; settings: MDA-MB-231, 24 h; for relative migration (%) of cells: FIG. 61; for migrated cells: FIGS. 62-67
Method: MDA-MB-231 cells (breast cancer cells) were starved in 0.5% serum-DMEM for 8 hours. For the migration assay, a total of 5×10^4cells were suspended in 500 μL of serum-free DMEM medium and seeded into the upper chamber of a […] pore size insert. Then, 750 μL of DMEM (containing 10% FBS) with or without the compound of the present application was added to the lower compartment. After incubation at 37° C. for 24 h, migrated cells were washed with PBS, fixed in 4% PFA and stained for 30 min in crystal violet solution (0.1% crystal violet). […] Each insert was photographed in 3 random fields at a magnification of 40×.

Sequence of wild type CK1δ (P48730 whole entry): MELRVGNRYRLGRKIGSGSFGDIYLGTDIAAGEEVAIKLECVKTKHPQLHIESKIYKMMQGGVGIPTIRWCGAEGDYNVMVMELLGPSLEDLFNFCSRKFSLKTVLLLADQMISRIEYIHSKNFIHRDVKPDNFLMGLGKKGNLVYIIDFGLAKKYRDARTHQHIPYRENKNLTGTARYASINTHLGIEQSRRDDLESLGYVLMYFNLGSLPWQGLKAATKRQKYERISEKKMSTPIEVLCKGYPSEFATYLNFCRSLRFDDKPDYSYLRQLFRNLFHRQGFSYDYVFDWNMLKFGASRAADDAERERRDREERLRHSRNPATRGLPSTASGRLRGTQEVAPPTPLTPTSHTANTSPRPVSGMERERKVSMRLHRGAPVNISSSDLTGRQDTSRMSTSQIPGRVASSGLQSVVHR

SMILES	IC50 (wild type CK1δ)	relative proliferation (%) of cells (MDA-MB-231 cells)	relative migration (%) of cells [1]	migrated cells [1]
Fc1ccc(-c2nc3c(n2-c2ccncc2)CCCC3)cc1 [Compound 2-5, 2-(4-fluorophenyl)-1-(pyridin-4-yl)-4,5,6,7-tetrahydro-1H-benzo[d]imidazole]	408 nM	affected in a concentration dependent manner	reduced	suppressed the migration
COc1ccc(Cn2nnc(-c3ccc(F)cc3)c2-c2ccncc2)cc1 [Compound 3-8, 4-(4-(4-fluorophenyl)-1-(4-methoxybenzyl)-1H-1,2,3-triazol-5-yl)pyridine]	97400 nM	affected in a concentration dependent manner		
Nc1nccc(-c2c(-c3ccc(F)cc3)nc3cnccn23)n1 [Compound 1-1, 4-(2-(4-fluorophenyl)imidazo[1,2-a]pyrazin-3-yl)pyrimidin-2-amine]		affected in a concentration dependent manner	reduced	suppressed the migration
CC(=O)N1CCn2nc(-c3ccc(F)cc3)c(-c3ccncc3)c2C1 [Compound 1-14, 1-(2-(4-fluorophenyl)-3-(pyridin-4-yl)-6,7-dihydropyrazolo[1,5-a]pyrazin-5(4H)-yl)ethan-1-one]	61.5 nM	affected in a concentration dependent manner	reduced	suppressed the migration
